Assay results from patent publication US20220265759A1, “COMPOSITION AND METHOD FOR PROMOTING WOUND HEALING” (THE BOARD OF TRUSTEES OF THE UNIVERSITY OF ILLIOIS, priority 2019, published 2022).
Peptide text beside a SMILES is read from it. * marks the point of attachment. Myristoyl = CCCCCCCCCCCCCC(=O)*

What was measured:
eNOS [1] = experiment: eNOS protein level in WT mouse wounds; assay type: in vivo, WT C57BL/6 mice; details: day 7, compared to control peptide
CCR10-eNOS interaction = molecular target: T1, CCR10-eNOS interaction (Mus musculus, UniProt Q9JL21); experiment: Co-IP of CCR10-eNOS interaction in WT mouse wounds; assay type: in vivo, WT C57BL/6 mice; details: day 7, 50 μM
T1 construct: cells or mouse wounds were collected after treatment, and lysed in 2% ODG in Tris buffer; tissue Jackson Laboratory; host or cells: dorsal skin wounds of WT C57BL/6 or db/db mice
T1 sequence (Q9JL21 1-362): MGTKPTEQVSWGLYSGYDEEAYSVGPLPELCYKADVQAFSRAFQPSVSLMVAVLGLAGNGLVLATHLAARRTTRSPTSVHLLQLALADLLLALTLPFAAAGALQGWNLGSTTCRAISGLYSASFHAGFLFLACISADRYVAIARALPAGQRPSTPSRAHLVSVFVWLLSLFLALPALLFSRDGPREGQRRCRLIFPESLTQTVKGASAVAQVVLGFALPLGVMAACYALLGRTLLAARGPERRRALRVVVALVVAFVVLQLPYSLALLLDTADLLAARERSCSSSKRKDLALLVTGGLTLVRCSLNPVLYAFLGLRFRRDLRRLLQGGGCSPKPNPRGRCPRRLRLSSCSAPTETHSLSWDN
From the text: Co-IP Experiments, cells or mouse wounds were collected after treatment, and lysed in 2% ODG in Tris buffer. The homogenates were further prepared for Co-IP experiments as described in the art (Chen, et al. (2018) Mol. Biol. Cell 29(10):1190-1202; Chen, et al. (2020) FASEB J. 34(4):5838-5850; Chen, et al. (2015) Ann. Rheum. Dis. 74:1898-1906).

[2] = tested on: CD31, CCR10, CCL28, IL-6, IL-4, HGF mRNA; experiment: Real-time RT-PCR of mRNA levels in WT mouse dermal wounds; assay type: in vivo, WT C57BL/6 mice
Method: Real-Time RT-PCR. Total cellular RNA from mouse skin wounds was extracted using nucleic acid extraction reagent sold under the tradename TRIZOL®. mRNA expression of different genes was examined by real-time RT-PCR that employed a SYBR Green PCR mix. Relative gene expression was determined by the ΔΔCt method based on GAPDH levels as described previously (Chen, et al. (2013) J. Immunol. 190:5256-5266).

NO production = NO production in db/db mouse wounds (nitrite measurement); assay type: in vivo, db/db mice; details: day 12, nitrite measurement
Method: Nitrite Measurement with Griess Reagent. Supernatants from confluent endothelial cells on 10-cm dishes with and without stimulation at 37° C. were analyzed for nitrite level using a Griess Reagent kit according to the manufacturer's instructions. Nitrite levels were normalized to eNOS expression level in the cells, as described in the art (Chen, et al. (2020) FASEB J. 34(4):5838-5850).
(§1) Two 8 mm full thickness excisional wounds were made on the dorsal skin of diabetic db/db mice and then 50 μl of 50 μM Myr-CBD7 peptide was topically applied. […] Reduced CCR10-eNOS interaction was also observed in the mouse wounds following treatment with Myr-CBD7 peptide as determined by Co-IP (FIG. 6).

CD31 = experiment: Microvessel density (CD31 staining) in db/db mouse wounds; assay type: in vivo, db/db mice; details: day 12
From the text: CD31 Staining in Mouse Wound Tissue. Formalin-fixed mouse skin samples were processed on ASP300 S automated tissue processor (Leica Biosystems, Buffalo Grove, Ill.) using a standard overnight processing protocol and embedded into paraffin blocks. Tissue was sectioned at 5 μm and stained with rabbit anti-CD31 antibody. Sections were deparaffinized, rehydrated, and stained on BOND″ RX automated stainer (Leica Biosystems, Buffalo Grove, Ill.) using a preset protocol. In brief, sections were subjected to EDTA-based antigen retrieval with BOND™ ER2 solution (Leica Biosystems, Buffalo Grove, Ill.) for 20 minutes at 100° C. Endogenous peroxidase activity and non-specific binding was blocked by treating samples with peroxidase block and protein block with Background Sniper (Biocare Medical, Pacheco, Calif.) for 15 minutes and 30 minutes at room temperature, respectively. Sections were then incubated with the primary antibody diluted at 1:200 for 30 minutes at room temperature. BOND™ Polymer Refine Detection kit (Leica Biosystems, Buffalo Grove, Ill.) was used for detection. […]
as §1

eNOS [3] = experiment: Immunoblot of eNOS phosphorylation in endothelial cells; assay type: cell-based, human; details: in presence of peptide
Method: Immunoblot and Co-Immunoprecipitation (Co-IP). After serum starvation, inhibitors were added 45 minutes prior to stimulation for indicated times at 37° C., and cells were then collected and lysed for western blot analysis. After probing for p-eNOS (Ser1177), p-p85 (Tyr458), p-Src (Tyr 416), and p-ERK (T202/Y204), the same blots were stripped and re-probed for total proteins mentioned above. For detection of CCL28-induced protein levels of β-catenin and Bcl-2, near-confluent endothelial cells were incubated with 500 ng/ml CCL28 for 24 hours in EGM-2 medium containing 1% FBS.

CCCCCCCCCCCCCC(=O)N[C@@H](CCCCN)C(=O)N[C@H](C(=O)N[C@@H](CO)C(=O)N[C@@H](C)C(=O)N[C@@H](CO)C(=O)N[C@@H](CC(C)C)C(=O)N[C@@H](CCSC)C(=O)O)[C@@H](C)CC [Myr-CBD7, myr-KISASLM] (Myristoyl-KISASLM-OH)
eNOS protein level in wounds (eNOS [1]): enhanced | CCR10-eNOS interaction in wounds (Co-IP) (CCR10-eNOS interaction): reduced | CCL28 mRNA level ([2]; wounds day 7): reduction | CCR10 mRNA level ([2]; wounds day 7): did not change | CD31 mRNA level ([2]; wounds day 7): elevated | IL-4 mRNA level ([2]; wounds day 7): enhancing | IL-6 mRNA level ([2]; wounds day 7): reduction | increase of hepatocyte growth factor (HGF) mRNA level ([2]; wounds day 7, non-significant): 35% | NO production in wounds (NO production): significantly elevated | microvessel density (CD31 staining) (CD31): enhanced | eNOS phosphorylation (Ser1177) (eNOS [3]): significantly enhanced
